Assay results from patent US8883963B2 (Cadila Healthcare Limited, priority 2007, dated 2014).

Experiments:
[1] = test system: RIN5F (Rat Insulinoma) cells; test: In vitro glucose-dependent insulin secretion (RIN5F cell assay screening protocol); assay type: cell-based; details: 16.7 mM glucose load
[2] = biological target: T1, Human GLP-1 receptor (Homo sapiens, UniProt P43220); test: In vitro Human GLP-1 R agonist activity (cyclic AMP determination) in CHO/human GLP1R cells; assay type: cell-based
T1 construct: The full-length cDNA was cloned in pcDNA3.1(+); expressed in transfected cells

[3] = biological target: DPP IV (Homo sapiens, UniProt P27487); test: Stability against DPP IV enzyme; assay type: in vitro ADME; details: 37° C.; for % degradation of peptidomimetics in 24 h when incubated with DPP-IV enzyme: 2 μM peptidomimetic; for half-life at 2 μM: DPP IV enzyme, pH 7.8, 2 μM peptidomimetic, read-out: half-life (t1/2) when incubated with DPP-IV enzyme
Procedure: (§1) Reactions were terminated by the addition of TFA/H2O (15 mL, 10% (v/v)). […] The column was equilibrated with TFA/H20, at a flow rate of 1 mL/min.

[4] = Stability in human plasma; assay type: in vitro ADME; details: 2 μM peptidomimetic, pooled human plasma, 37° C.; for half-life at 2 μM: pH 7.8, read-out: half-life (t1/2) when incubated with human plasma
Procedure: as §1

[5] = Stability in simulated gastric fluid; assay type: in vitro ADME; details: 2 μM peptidomimetic, simulated gastric fluid pH 1.5, 37° C.; for half-life at 2 μM: read-out: half-life (t1/2) when incubated with simulated gastric fluid
Procedure: as §1

[6] = Stability in simulated intestinal fluid; assay type: in vitro ADME; details: 2 μM peptidomimetic, simulated intestinal fluid pH 7.5, 37° C.; for half-life at 2 μM: read-out: half-life (t1/2) when incubated with simulated intestinal fluid
Procedure: as §1

[7] = Stability in liver microsomes; assay type: in vitro ADME; details: 2 μM peptidomimetic, human liver microsomes, 37° C.; for half-life at 2 μM: pH 7.8, read-out: half-life (t1/2) when incubated with liver microsomes
Procedure: as §1

[8] = biological target: T2, human glucagon receptor (Homo sapiens, UniProt P47871); test: In vitro human glucagon antagonist activity (inhibition of cAMP production) in CHO/human glucagon R cells; assay type: cell-based; details: with saturated concentration of glucagon peptide
T2 construct: The full-length cDNA was cloned in pcDNA3.1 (Invitrogen); expressed in transfected cells
T2 sequence (P47871 26-477): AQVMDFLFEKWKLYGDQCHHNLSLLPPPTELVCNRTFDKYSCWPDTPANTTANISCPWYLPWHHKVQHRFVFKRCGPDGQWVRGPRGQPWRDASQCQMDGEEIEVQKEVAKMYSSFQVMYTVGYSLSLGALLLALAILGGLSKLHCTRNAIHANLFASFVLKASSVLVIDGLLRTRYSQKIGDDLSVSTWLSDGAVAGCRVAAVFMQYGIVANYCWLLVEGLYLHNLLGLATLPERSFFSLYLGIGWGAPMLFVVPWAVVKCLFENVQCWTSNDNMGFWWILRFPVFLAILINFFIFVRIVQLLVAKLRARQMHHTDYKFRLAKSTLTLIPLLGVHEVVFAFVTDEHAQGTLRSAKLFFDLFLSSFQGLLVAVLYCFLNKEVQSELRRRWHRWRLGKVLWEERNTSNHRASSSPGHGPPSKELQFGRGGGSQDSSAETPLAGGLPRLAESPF

T1 sequence (P43220 24-463): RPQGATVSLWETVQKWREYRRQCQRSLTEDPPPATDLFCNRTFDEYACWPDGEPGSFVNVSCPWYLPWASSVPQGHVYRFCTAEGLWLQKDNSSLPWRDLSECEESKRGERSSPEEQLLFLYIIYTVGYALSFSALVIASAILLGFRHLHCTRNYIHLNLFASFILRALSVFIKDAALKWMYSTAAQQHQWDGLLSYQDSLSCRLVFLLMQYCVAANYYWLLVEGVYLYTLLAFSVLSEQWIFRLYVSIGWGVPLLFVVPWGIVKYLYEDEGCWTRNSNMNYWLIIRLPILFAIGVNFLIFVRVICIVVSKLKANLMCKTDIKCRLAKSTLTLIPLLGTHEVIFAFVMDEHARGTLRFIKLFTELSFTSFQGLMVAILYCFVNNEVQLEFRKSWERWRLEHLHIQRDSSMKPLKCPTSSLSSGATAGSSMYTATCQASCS
Chain of DPP IV (P27487 whole entry, species assumed): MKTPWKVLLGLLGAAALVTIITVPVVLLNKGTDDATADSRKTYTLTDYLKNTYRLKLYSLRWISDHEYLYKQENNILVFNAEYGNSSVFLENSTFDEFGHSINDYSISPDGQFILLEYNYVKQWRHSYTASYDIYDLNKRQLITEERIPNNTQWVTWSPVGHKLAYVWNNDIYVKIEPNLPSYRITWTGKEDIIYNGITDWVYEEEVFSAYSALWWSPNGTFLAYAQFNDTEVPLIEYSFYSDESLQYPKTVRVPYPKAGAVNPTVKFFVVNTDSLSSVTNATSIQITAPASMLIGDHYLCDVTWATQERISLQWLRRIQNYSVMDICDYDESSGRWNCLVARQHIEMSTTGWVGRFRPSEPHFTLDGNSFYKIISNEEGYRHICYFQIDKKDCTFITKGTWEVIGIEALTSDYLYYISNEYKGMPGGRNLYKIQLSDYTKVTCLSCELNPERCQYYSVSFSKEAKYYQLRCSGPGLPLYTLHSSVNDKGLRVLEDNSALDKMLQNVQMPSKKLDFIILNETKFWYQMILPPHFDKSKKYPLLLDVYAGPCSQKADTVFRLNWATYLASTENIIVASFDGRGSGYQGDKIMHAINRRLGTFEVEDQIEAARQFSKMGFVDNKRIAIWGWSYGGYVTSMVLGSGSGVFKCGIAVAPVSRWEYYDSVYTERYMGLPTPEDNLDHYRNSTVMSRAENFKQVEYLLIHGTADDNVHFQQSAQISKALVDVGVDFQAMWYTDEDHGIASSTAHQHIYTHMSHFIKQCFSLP

Row | Compound | Insulin secretion ([1]; 0.1 nM test compd.) [pg/µg/h] | Insulin secretion ([1]; 1 nM test compd.) [pg/µg/h] | Insulin secretion ([1]; 10 nM test compd.) [pg/µg/h] | Human GLP-1 R activity (cAMP release), % activity with respect to control ([2]; 1 nM test compound) [%] | Human GLP-1 R activity (cAMP release), % activity with respect to control ([2]; 10 nM test compound) [%] | Human GLP-1 R activity (cAMP release), % activity with respect to control ([2]; 100 nM test compound) [%] | % degradation of peptidomimetics in 24 h when incubated with DPP-IV enzyme [3] [%] | % degradation of peptidomimetics in 24 h when incubated with human plasma [4] [%] | % degradation of peptidomimetics in 24 h when incubated with simulated gastric fluid [5] [%] | half-life at 2 μM [5] [min] | % degradation of peptidomimetics in 24 h when incubated with simulated intestinal fluid [6] | half-life at 2 μM [6] [min] | % degradation of peptidomimetics in 24 h when incubated with liver microsomes [7] [%] | half-life at 2 μM [7] [min] | half-life (t1/2) when incubated with human plasma [4] | Human Glucagon receptor antagonistic activity shown as inhibition of cAMP production of Glucagon peptide ([8]; 1 nM test compound) [pmol/ml/μg prt] | Human Glucagon receptor antagonistic activity shown as inhibition of cAMP production of Glucagon peptide ([8]; 10 nM test compound) [pmol/ml/μg prt] | Human Glucagon receptor antagonistic activity shown as inhibition of cAMP production of Glucagon peptide ([8]; 100 nM test compound) [pmol/ml/μg prt] | Human Glucagon receptor antagonistic activity shown as inhibition of cAMP production of Glucagon peptide ([8]; 1 μM test compound) [pmol/ml/μg prt] | Human Glucagon receptor antagonistic activity shown as inhibition of cAMP production of Glucagon peptide ([8]; 10 μM test compound) [pmol/ml/μg prt] | also measured
1 | CCc1cc(OC)ccc1-c1ccc(CC(NC(=O)[C@H](CC(=O)O)NC(=O)[C@H](CO)NC(=O)[C@@H](NC(=O)[C@H](Cc2ccccc2)NC(=O)[C@@H](NC(=O)CNC(=O)C(CCC#N)NC(=O)C(C)(C)NC(=O)[C@@H](N)Cc2c[nH]cn2)[C@@H](C)O)[C@@H](C)O)C(=O)NC(CCCc2ccccc2Cl)C(N)=O)cc1 (single isomer, unassigned) [compound 82] | 16.9 ± 0.22 | 22.8 ± 0.31 | 36.7 ± 0.34 | 78 ± 0.12 | 99 ± 0.15 | 99 ± 0.18 | 00 | 00 | 55 | 240 | 00% | > 1440 | 84 | 120 |  |  |  |  |  |  | Human GLP-1 R activity (cAMP release), % activity with respect to control ([2]; 1 μM test compound): 99 ± 0.03%; Human GLP-1 R activity (cAMP release), % activity with respect to control ([2]; 10 μM test compound): 99 ± 0.09%; half-life at 2 μM [3]: > 1440 min; half-life at 2 μM [4]: > 1440 min
2 | CCc1cc(OC)ccc1-c1ccc(CC(NC(=O)[C@H](CC(=O)O)NC(=O)[C@H](CO)NC(=O)[C@@H](NC(=O)C(C)(Cc2ccccc2)NC(=O)[C@@H](NC(=O)CNC(=O)[C@H](CC(C(F)(F)F)C(F)(F)F)NC(=O)C(C)(C)NC(=O)[C@@H](N)Cc2c[nH]cn2)[C@@H](C)O)[C@@H](C)O)C(=O)NC(CCCc2ccccc2)C(N)=O)cc1 (single isomer, unassigned) [compound 230] | 12.1 ± 0.51 | 14.1 ± 0.19 | 28.1 ± 0.29 | 99 ± 0.12 | 99 ± 0.08 | 99 ± 0.11 | 86 | 70 | 100 | 30 | 100 ) % | 30 | 100 | 30 | (9) h |  |  |  |  |  | Human GLP-1 R activity (cAMP release), % activity with respect to control ([2]; 1 μM test compound): 99 ± 0.12%; Human GLP-1 R activity (cAMP release), % activity with respect to control ([2]; 10 μM test compound): 99 ± 0.16%
3 | CCc1cc(OC)ccc1-c1ccc(CC(C(=O)N(C)C(CCCc2ccccc2)C(N)=O)N(C)C(=O)[C@H](CC(=O)O)NC(=O)[C@H](CO)NC(=O)[C@@H](NC(=O)C(C)(Cc2ccccc2F)NC(=O)[C@@H](NC(=O)CNC(=O)C(CCC#N)NC(=O)C(C)(C)NC(=O)[C@@H](N)Cc2c[nH]cn2)[C@H](C)O)[C@H](C)O)cc1 (single isomer, unassigned) [compound 142] | 12.9 ± 0.14 | 15.8 ± 0.13 | 29.9 ± 0.15 |  |  |  | 77 | 80 | 13 |  | 50% |  | 82 | 60 |  | 10 ± 0.03 | 8 ± 0.03 | 6 ± 0.22 | 2 ± 0.13 | 0 | half-life at 2 μM [3]: 540 min; half-life at 2 μM [4]: 480 min; half-life (t1/2) when incubated with simulated gastric fluid [5]: (8) h; half-life (t1/2) when incubated with simulated intestinal fluid [6]: (6) h
4 | CCc1cc(OC)ccc1-c1ccc(CC(NC(=O)[C@H](CC(=O)O)NC(=O)[C@H](CO)NC(=O)[C@@H](NC(=O)[C@H](Cc2ccccc2)NC(=O)[C@@H](NC(=O)CNC(=O)C(CCC#N)NC(=O)C(C)(C)NC(=O)[C@@H](N)Cc2c[nH]cn2)[C@@H](C)O)[C@@H](C)O)C(=O)NC(CCCc2ccc(F)cc2F)C(N)=O)cc1 (single isomer, unassigned) [compound 78] | 16.6 ± 0.41 | 22.9 ± 0.32 | 36.7 ± 0.11 |  |  |  | 70 | 71 | 100 | 30 | 100% | 30 | 100 | 30 | (9) h | 22 ± 0.03 | 21 ± 0.05 | 20 ± 0.07 | 18 ± 0.04 | 18 ± 0.03 | 
5 | CCc1cc(OC)ccc1-c1ccc(CC(NC(=O)[C@H](CC(=O)O)NC(=O)[C@H](CO)NC(=O)[C@@H](NC(=O)[C@H](Cc2ccccc2)NC(=O)[C@@H](NC(=O)CNC(=O)C(CCC#N)NC(=O)C(C)(C)NC(=O)[C@@H](N)Cc2c[nH]cn2)[C@@H](C)O)[C@@H](C)O)C(=O)NC(CCCc2cccc(Cl)c2)C(N)=O)cc1 (single isomer, unassigned) [compound 31] | 16.8 ± 0.20 | 22.7 ± 0.29 | 36.6 ± 0.31 |  |  |  | 76 | 78 | 100 | 30 | 100% | 30 | 100 | 30 | (9) h | 6 ± 0.02 | 5 ± 0.03 | 2 ± 0.61 | 0 | 0 | 
